We go through 14 compounds from patent US7186701B2, “Dehydrating agent and method for dehydrating moist article using the agent and dehydrated article obtained by the method” (Kabushiki Kaisha Hayashibara Seibutsu Kagaku Kenkyujo, priority 2001, dated 2007).

The structures appear in SMILES notation.

Series [1] deals with α-isomaltosylglucosaccharide-forming enzyme. In words: Specificity of transfer acceptor (C9 enzyme). Further details: key: −: no saccharide-transferred product was detected through transferring reaction to acceptor; ±: a saccharide-transferred product was detected in an amount of less than one percent through transfer reaction to acceptor; +: a saccharide-transferred product was detected in an amount of at least one percent but less than ten percent through transferring reaction to acceptor; ++: a saccharide-transferred product was detected in an amount of at least ten percent through transferring reaction to acceptor. Type of series: biochemical, Bacillus globisporus C9 strain. Conditions: acceptor 1.6%, PINE-DEX #100 donor 4%, one unit/g donor, 30° C., pH 6.0, 24 hours. The protocol:
(§1) A variety of saccharides were tested whether they could be used as transferring-acceptors for the α-isomaltosylglucosaccharide-forming enzyme. A solution of D-glucose, D-xylose, L-xylose, D-galactose, D-fructose, D-mannose, D-arabinose, D-fucose, L-sorbose, L-rhamnose, methyl-α-glucopyranoside, methyl-β-glucopyranoside, N-acetyl-glucosamine, sorbitol, α,α-trehalose, isomaltose, isomaltotriose, cellobiose, gentibiose, maltitol, lactose, sucrose, α-cyclodextrin, β-cyclodextrin, or γ-cyclodextrin was prepared. […] The reaction mixtures after the enzymatic reactions were analyzed on gas chromatography (abbreviated as “GLC” hereinafter) for monosaccharides and disaccharides as acceptors, and on HPLC for trisaccharides and higher saccharides as acceptors to confirm whether these saccharides could be used as their transfer acceptors. In the case of performing GLC, the following apparatuses and conditions were used: […] In the case of HPLC analysis, the apparatuses and conditions used were: HPLC apparatus, “CCPD” commercialized by Tosoh Corporation, Tokyo, Japan; column, “ODS-AQ-303” commercialized by YMC Co., Ltd., Tokyo, Japan; eluent, water at a flow rate of 0.5 ml/min; and detection, a differential refractometer.

The test system is the same in series [2]. The experiment in a line: Specificity of transfer acceptor (C11 enzyme). The class given is biochemical, Bacillus globisporus C11 strain. More on the design: key: −: no saccharide-transferred product was detected through transferring reaction to acceptor; ±: a saccharide-transferred product was detected in an amount of less than one percent through transfer reaction to acceptor; +: a saccharide-transferred product was detected in an amount of at least one percent but less than ten percent through transferring reaction to acceptor; ++: a saccharide-transferred product was detected in an amount of at least ten percent through transferring reaction to acceptor. Conditions: acceptor 1.6%, PINE-DEX #100 donor 4%, one unit/g donor, 30° C., pH 6.0, 24 hours. As for the experimental part: as §1

The nature of series [3]: Dehydrating action: moisture absorption on standing at controlled relative humidity. The class given is physicochemical. The conditions noted are these: relative humidity of 75%. The source says: Anhydrous crystalline cyclotetrasaccharide; crystalline cyclotetrasaccharide, monohydrate; anhydrous amorphous cyclotetrasaccharide; and crystalline cyclotetrasaccharide, penta- or hexa-hydrate were experimented in detail on their dehydrating actions, particularly, moisture absorption abilities against saccharides and changes on standing. As a control, anhydrous crystalline α,α-trehalose, anhydrous amorphous α,α-trehalose, and crystalline α,α-trehalose, dihydrate, were used as saccharides. The experiments were as follows: […]

As for `O=C[C@H](O)[C@@H](O)[C@@H](O)[C@H](O)CO` [D-Galactose, D-galactose], the “Product of saccharide transferring reaction, Enzyme of C9 strain” value (from here on “Product … of C9 strain”) in series [1] is listed as “+ (a saccharide-transferred product was detected in an amount of at least one percent but less than ten percent through transferring reaction to acceptor)”. For the same compound, the “Product of saccharide transferring reaction, Enzyme of C11 strain” value (from here on “Product … of C11 strain”) in series [2] is on record as “+ (a saccharide-transferred product was detected in an amount of at least one percent but less than ten percent through transferring reaction to acceptor)”.
`CO[C@H]1O[C@H](CO)[C@@H](O)[C@H](O)[C@H]1O` [Methyl-α-glucopyranoside, methyl-α-glucopyranoside]: the “Product … of C9 strain” value in series [1] is listed as “++ (a saccharide-transferred product was detected in an amount of at least ten percent through transferring reaction to acceptor)”. Also, in series [2], the “Product … of C11 strain” value is given as “++ (a saccharide-transferred product was detected in an amount of at least ten percent through transferring reaction to acceptor)”.
For the compound `C[C@H](O)[C@H](O)[C@@H](O)[C@@H](O)C=O` [L-Rhamnose, L-rhamnose], in series [1], the “Product … of C9 strain” value was “−”. Also, the “Product … of C11 strain” value in series [2] is given as “−”.
For the compound `C[C@@H](O)[C@H](O)[C@H](O)[C@@H](O)C=O` [D-Fucose, D-fucose], the “Product … of C9 strain” value in series [1] was “+ (a saccharide-transferred product was detected in an amount of at least one percent but less than ten percent through transferring reaction to acceptor)”. In series [2], the “Product … of C11 strain” value is on record as “+ (a saccharide-transferred product was detected in an amount of at least one percent but less than ten percent through transferring reaction to acceptor)”.
Turning to `OC[C@H]1O[C@H](OC[C@H]2O[C@H](OC[C@H]3OC(O)[C@H](O)[C@@H](O)[C@@H]3O)[C@H](O)[C@@H](O)[C@@H]2O)[C@H](O)[C@@H](O)[C@@H]1O` (some centres unmarked) [Isomaltotriose, isomaltotriose], the “Product … of C9 strain” value in series [1] was “++ (a saccharide-transferred product was detected in an amount of at least ten percent through transferring reaction to acceptor)”. Moreover, the “Product … of C11 strain” value in series [2] was “++ (a saccharide-transferred product was detected in an amount of at least ten percent through transferring reaction to acceptor)”.
With `OC[C@H]1O[C@@H]2O[C@H]3[C@H](O)[C@@H](O)[C@@H](O[C@H]4[C@H](O)[C@@H](O)[C@@H](O[C@H]5[C@H](O)[C@@H](O)[C@@H](O[C@H]6[C@H](O)[C@@H](O)[C@@H](O[C@H]7[C@H](O)[C@@H](O)[C@@H](O[C@H]8[C@H](O)[C@@H](O)[C@@H](O[C@H]1[C@H](O)[C@H]2O)O[C@@H]8CO)O[C@@H]7CO)O[C@@H]6CO)O[C@@H]5CO)O[C@@H]4CO)O[C@@H]3CO` [β-Cyclodextrin, β-cyclodextrin], the “Product … of C9 strain” value in series [1] is listed as “−”. Moreover, the “Product … of C11 strain” value in series [2] was “−”.
Take `CO[C@@H]1O[C@H](CO)[C@@H](O)[C@H](O)[C@H]1O` [Methyl-β-glucopyranoside, methyl-β-glucopyranoside]: in series [1], the “Product … of C9 strain” value is “++ (a saccharide-transferred product was detected in an amount of at least ten percent through transferring reaction to acceptor)”. Moreover, the “Product … of C11 strain” value in series [2] is “++ (a saccharide-transferred product was detected in an amount of at least ten percent through transferring reaction to acceptor)”.
Regarding `OC[C@H]1O[C@@H]2O[C@H]3[C@H](O)[C@@H](O)[C@@H](O[C@H]4[C@H](O)[C@@H](O)[C@@H](O[C@H]5[C@H](O)[C@@H](O)[C@@H](O[C@H]6[C@H](O)[C@@H](O)[C@@H](O[C@H]7[C@H](O)[C@@H](O)[C@@H](O[C@H]1[C@H](O)[C@H]2O)O[C@@H]7CO)O[C@@H]6CO)O[C@@H]5CO)O[C@@H]4CO)O[C@@H]3CO` [α-Cyclodextrin, α-cyclodextrin], the “Product … of C9 strain” value in series [1] is on record as “−”. The “Product … of C11 strain” value in series [2] is listed as “−”.
For the compound `OC[C@H]1O[C@@](CO)(O[C@H]2O[C@H](CO)[C@@H](O)[C@H](O)[C@H]2O)[C@@H](O)[C@@H]1O` [Sucrose, sucrose], in series [1], the “Product … of C9 strain” value was “++ (a saccharide-transferred product was detected in an amount of at least ten percent through transferring reaction to acceptor)”. In series [2], the “Product … of C11 strain” value is reported as “++ (a saccharide-transferred product was detected in an amount of at least ten percent through transferring reaction to acceptor)”.
With `O=C[C@H](O)[C@@H](O)[C@H](O)CO` [D-Xylose, D-xylose], the “Product … of C9 strain” value in series [1] is reported as “++ (a saccharide-transferred product was detected in an amount of at least ten percent through transferring reaction to acceptor)”. For the same compound, the “Product … of C11 strain” value in series [2] was “++ (a saccharide-transferred product was detected in an amount of at least ten percent through transferring reaction to acceptor)”.
`OC[C@H]1O[C@H](O[C@H]2O[C@H](CO)[C@@H](O)[C@H](O)[C@H]2O)[C@H](O)[C@@H](O)[C@@H]1O` [α,α-Trehalose, α,α-trehalose, reference compound]: the “Product … of C9 strain” value in series [1] is “++ (a saccharide-transferred product was detected in an amount of at least ten percent through transferring reaction to acceptor)”. Further, the “moisture absorption level, % of its weight” value in series [3] was at most 10%. For the same compound, in series [2], the “Product … of C11 strain” value was “++ (a saccharide-transferred product was detected in an amount of at least ten percent through transferring reaction to acceptor)”.
With `O=C[C@H](O)[C@@H](O)[C@H](O[C@@H]1O[C@H](CO)[C@@H](O)[C@H](O)[C@H]1O)[C@H](O)CO` [Cellobiose, cellobiose], the “Product … of C9 strain” value in series [1] was “++ (a saccharide-transferred product was detected in an amount of at least ten percent through transferring reaction to acceptor)”. In series [2], the “Product … of C11 strain” value is “++ (a saccharide-transferred product was detected in an amount of at least ten percent through transferring reaction to acceptor)”.
As to `O=C(CO)[C@@H](O)[C@H](O)[C@@H](O)CO` [L-Sorbose, L-sorbose], the “Product … of C9 strain” value in series [1] is given as “+ (a saccharide-transferred product was detected in an amount of at least one percent but less than ten percent through transferring reaction to acceptor)”. For the same compound, the “Product … of C11 strain” value in series [2] is “+ (a saccharide-transferred product was detected in an amount of at least one percent but less than ten percent through transferring reaction to acceptor)”.
For the compound `OC[C@H]1O[C@H](OC[C@H]2OC(O)[C@H](O)[C@@H](O)[C@@H]2O)[C@H](O)[C@@H](O)[C@@H]1O` (some centres unmarked) [Isomaltose, isomaltose], the “Product … of C9 strain” value in series [1] is on record as “++ (a saccharide-transferred product was detected in an amount of at least ten percent through transferring reaction to acceptor)”. Further, the “Product … of C11 strain” value in series [2] is recorded as “++ (a saccharide-transferred product was detected in an amount of at least ten percent through transferring reaction to acceptor)”.
